Drawing on the supplement of paper PMC10307832, this text covers relative viability for four compounds.

In the first experiment the test system is A549. The experiment can be described thus: relative viability (nuclei count vs DMSO), 5 days (fraction); higher = more cells survive. The following applies: first compound 6.325 µM. A digest of the protocol:
(§1)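 Five library-drug doses in √10 steps were combined with a fixed anchor-drug dose, or a single drug was given alone, by pin tool to lung cancer cell lines in 1536-well plates the day after seeding. Nuclei were stained and counted after 5 days. Relative viability is the nuclei count in treated wells over that in vehicle wells, taken as the median of duplicate plates.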
Take `COCC1(CO)C(=O)C2CCN1CC2` (configuration not stated) [PRIMA-1MET] + C[C@]1(O)C[C@@H](c2nc(-c3ccc4ccc(-c5ccccc5)nc4c3)c3c(N)nccn32)C1 [Linsitinib] (partner 1 µM): the relative viability is 0.598.
The compound `COCC1(CO)C(=O)C2CCN1CC2` (configuration not stated) [PRIMA-1MET] + Cc1nc(NC(=O)N2CCC[C@H]2C(N)=O)sc1-c1ccnc(C(C)(C)C(F)(F)F)c1 [Alpelisib] (partner 2 µM) gave a relative viability of 0.881.

Still in this experiment, the particulars now being: first compound 20 µM.
For `COCC1(CO)C(=O)C2CCN1CC2` (configuration not stated) [PRIMA-1MET] + CS(=O)(=O)CCNCc1ccc(-c2ccc3ncnc(Nc4ccc(OCc5cccc(F)c5)c(Cl)c4)c3c2)o1 [Lapatinib] (partner 2 µM), the relative viability turned out to be 0.943.
`COCC1(CO)C(=O)C2CCN1CC2` (configuration not stated) [PRIMA-1MET] + C[C@]1(O)C[C@@H](c2nc(-c3ccc4ccc(-c5ccccc5)nc4c3)c3c(N)nccn32)C1 [Linsitinib] (partner 1 µM): the relative viability amounted to 0.403.
Still for that read-out and setting: as for `COCC1(CO)C(=O)C2CCN1CC2` (configuration not stated) [PRIMA-1MET] + Cc1nc(NC(=O)N2CCC[C@H]2C(N)=O)sc1-c1ccnc(C(C)(C)C(F)(F)F)c1 [Alpelisib] (partner 2 µM), the figure is 0.593.

A further experiment concerns IA-LM. The experiment is described as above. Particulars: first compound 0.2 µM. A digest of the protocol: as §1
`COCC1(CO)C(=O)C2CCN1CC2` (configuration not stated) [PRIMA-1MET] + CS(=O)(=O)CCNCc1ccc(-c2ccc3ncnc(Nc4ccc(OCc5cccc(F)c5)c(Cl)c4)c3c2)o1 [Lapatinib] (partner 2 µM) displayed a relative viability of 0.686.
Compound `COCC1(CO)C(=O)C2CCN1CC2` (configuration not stated) [PRIMA-1MET] + C[C@]1(O)C[C@@H](c2nc(-c3ccc4ccc(-c5ccccc5)nc4c3)c3c(N)nccn32)C1 [Linsitinib] (partner 1 µM) returned a relative viability of 0.483.
The same measure, in the same setting: as for `COCC1(CO)C(=O)C2CCN1CC2` (configuration not stated) [PRIMA-1MET] + CC(C)C[C@H](NC(=O)[C@H](Cc1ccccc1)NC(=O)c1cnccn1)B(O)O [Bortezomib] (partner 0.002 µM), the figure is 1.02; as for `COCC1(CO)C(=O)C2CCN1CC2` (configuration not stated) [PRIMA-1MET] + Cc1nc(NC(=O)N2CCC[C@H]2C(N)=O)sc1-c1ccnc(C(C)(C)C(F)(F)F)c1 [Alpelisib] (partner 2 µM), 0.695.

The experiment is the same for the next values; noted with them: first compound 0.6325 µM.
The compound `COCC1(CO)C(=O)C2CCN1CC2` (configuration not stated) [PRIMA-1MET] + CS(=O)(=O)CCNCc1ccc(-c2ccc3ncnc(Nc4ccc(OCc5cccc(F)c5)c(Cl)c4)c3c2)o1 [Lapatinib] (partner 2 µM) had a relative viability of 0.746.
On the same count and under the same terms, as for `COCC1(CO)C(=O)C2CCN1CC2` (configuration not stated) [PRIMA-1MET] + C[C@]1(O)C[C@@H](c2nc(-c3ccc4ccc(-c5ccccc5)nc4c3)c3c(N)nccn32)C1 [Linsitinib] (partner 1 µM), the figure is 0.661; as for `COCC1(CO)C(=O)C2CCN1CC2` (configuration not stated) [PRIMA-1MET] + CC(C)C[C@H](NC(=O)[C@H](Cc1ccccc1)NC(=O)c1cnccn1)B(O)O [Bortezomib] (partner 0.002 µM), 0.648; as for `COCC1(CO)C(=O)C2CCN1CC2` (configuration not stated) [PRIMA-1MET] + Cc1nc(NC(=O)N2CCC[C@H]2C(N)=O)sc1-c1ccnc(C(C)(C)C(F)(F)F)c1 [Alpelisib] (partner 2 µM), 0.863.

The experiment is the same for the next values; noted with them: first compound 2 µM.
Regarding `COCC1(CO)C(=O)C2CCN1CC2` (configuration not stated) [PRIMA-1MET] + CS(=O)(=O)CCNCc1ccc(-c2ccc3ncnc(Nc4ccc(OCc5cccc(F)c5)c(Cl)c4)c3c2)o1 [Lapatinib] (partner 2 µM), the relative viability was determined as 0.724.
Same read-out and setting: with `COCC1(CO)C(=O)C2CCN1CC2` (configuration not stated) [PRIMA-1MET] + C[C@]1(O)C[C@@H](c2nc(-c3ccc4ccc(-c5ccccc5)nc4c3)c3c(N)nccn32)C1 [Linsitinib] (partner 1 µM) the figure was 0.358; with `COCC1(CO)C(=O)C2CCN1CC2` (configuration not stated) [PRIMA-1MET] + CC(C)C[C@H](NC(=O)[C@H](Cc1ccccc1)NC(=O)c1cnccn1)B(O)O [Bortezomib] (partner 0.002 µM), 0.831.
The same measure, in the same setting: with `COCC1(CO)C(=O)C2CCN1CC2` (configuration not stated) [PRIMA-1MET] + Cc1nc(NC(=O)N2CCC[C@H]2C(N)=O)sc1-c1ccnc(C(C)(C)C(F)(F)F)c1 [Alpelisib] (partner 2 µM) the figure was 0.726.

Still in this experiment, the particulars now being: first compound 6.325 µM.
The compound `COCC1(CO)C(=O)C2CCN1CC2` (configuration not stated) [PRIMA-1MET] + CS(=O)(=O)CCNCc1ccc(-c2ccc3ncnc(Nc4ccc(OCc5cccc(F)c5)c(Cl)c4)c3c2)o1 [Lapatinib] (partner 2 µM) displayed a relative viability of 0.73.
`COCC1(CO)C(=O)C2CCN1CC2` (configuration not stated) [PRIMA-1MET] + C[C@]1(O)C[C@@H](c2nc(-c3ccc4ccc(-c5ccccc5)nc4c3)c3c(N)nccn32)C1 [Linsitinib] (partner 1 µM) displayed a relative viability of 0.713.
Same read-out and setting: as for `COCC1(CO)C(=O)C2CCN1CC2` (configuration not stated) [PRIMA-1MET] + CC(C)C[C@H](NC(=O)[C@H](Cc1ccccc1)NC(=O)c1cnccn1)B(O)O [Bortezomib] (partner 0.002 µM), the figure is 0.989.
Same read-out and setting: with `COCC1(CO)C(=O)C2CCN1CC2` (configuration not stated) [PRIMA-1MET] + Cc1nc(NC(=O)N2CCC[C@H]2C(N)=O)sc1-c1ccnc(C(C)(C)C(F)(F)F)c1 [Alpelisib] (partner 2 µM) the figure was 1.

The experiment is the same for the next values; noted with them: first compound 20 µM.
`COCC1(CO)C(=O)C2CCN1CC2` (configuration not stated) [PRIMA-1MET] + CS(=O)(=O)CCNCc1ccc(-c2ccc3ncnc(Nc4ccc(OCc5cccc(F)c5)c(Cl)c4)c3c2)o1 [Lapatinib] (partner 2 µM) displayed a relative viability of 0.637.
Still for that read-out and setting: with `COCC1(CO)C(=O)C2CCN1CC2` (configuration not stated) [PRIMA-1MET] + C[C@]1(O)C[C@@H](c2nc(-c3ccc4ccc(-c5ccccc5)nc4c3)c3c(N)nccn32)C1 [Linsitinib] (partner 1 µM) the figure was 0.573; with `COCC1(CO)C(=O)C2CCN1CC2` (configuration not stated) [PRIMA-1MET] + CC(C)C[C@H](NC(=O)[C@H](Cc1ccccc1)NC(=O)c1cnccn1)B(O)O [Bortezomib] (partner 0.002 µM), 0.903.
For `COCC1(CO)C(=O)C2CCN1CC2` (configuration not stated) [PRIMA-1MET] + Cc1nc(NC(=O)N2CCC[C@H]2C(N)=O)sc1-c1ccnc(C(C)(C)C(F)(F)F)c1 [Alpelisib] (partner 2 µM), the relative viability is 0.813.

The subject of another experiment is Calu-6. The description is as above. Particulars: first compound 0.2 µM. A digest of the protocol: as §1
`COCC1(CO)C(=O)C2CCN1CC2` (configuration not stated) [PRIMA-1MET] + CS(=O)(=O)CCNCc1ccc(-c2ccc3ncnc(Nc4ccc(OCc5cccc(F)c5)c(Cl)c4)c3c2)o1 [Lapatinib] (partner 2 µM) showed a relative viability of 1.14.
As to `COCC1(CO)C(=O)C2CCN1CC2` (configuration not stated) [PRIMA-1MET] + C[C@]1(O)C[C@@H](c2nc(-c3ccc4ccc(-c5ccccc5)nc4c3)c3c(N)nccn32)C1 [Linsitinib] (partner 1 µM), the relative viability was 1.02.
